From PubChem BioAssay (NCI)
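Following 48 hours of exposure in 96-well plates, responses at five concentrations were used to interpolate endpoints linearly. At the GI50, growth is halved. TGI marks complete inhibition of growth.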

Assays:
Assay in all cases: growth of human tumour cells (NCI), 48 h
[1] = tested on: MALME-3M melanoma
[2] = tested on: M14 melanoma
[3] = tested on: UO-31 renal
[4] = tested on: UACC-257 melanoma
[5] = tested on: CAKI-1 renal
[6] = tested on: RXF 393 renal
[7] = tested on: U251 CNS
[8] = tested on: K-562 leukemia
[9] = tested on: HOP-92 NSCLC
[10] = tested on: SNB-19 CNS

## CCOC(=O)C(O)(NC(=O)c1ccccc1F)C(F)(F)F (stereo not given)
[1]
  TGI: > 100 µM
[2]
  TGI: > 100 µM
[3]
  TGI: > 100 µM
[4]
  TGI: > 100 µM
[5]
  TGI: > 100 µM
[6]
  TGI: > 100 µM
[7]
  TGI: > 100 µM
[8]
  TGI: > 100 µM
[9]
  TGI: > 100 µM
[10]
  TGI: > 100 µM

## CO/N=C(\C)COc1ccc2c(=O)c(-c3ccccc3)coc2c1
[2]
  GI50: 93.7 µM
  TGI: > 100 µM
[3]
  GI50: 22.2 µM
  TGI: 46.3 µM
[4]
  GI50: 25.6 µM
  TGI: 97.3 µM
[6]
  GI50: 27.1 µM
  TGI: 57.8 µM
[7]
  GI50: 32.2 µM
  TGI: > 100 µM
[8]
  GI50: > 100 µM
  TGI: > 100 µM
[9]
  GI50: 17.2 µM
  TGI: 43.9 µM
[10]
  GI50: 17.7 µM
  TGI: > 100 µM

## COc1cc(C2C(C(=O)O)=C(COC(C)=O)Oc3cc4c(cc32)OCO4)cc(OC)c1OC (stereo not given)
[1]
  TGI: > 100 µM
[2]
  TGI: > 100 µM
[3]
  TGI: > 100 µM
[4]
  TGI: > 100 µM
[5]
  TGI: > 100 µM
[6]
  TGI: > 100 µM
[7]
  TGI: > 100 µM
[8]
  TGI: > 100 µM
[10]
  TGI: > 100 µM

## CN(C)c1ccc(C(Cc2ccc3ccccc3n2)Cc2ccc3ccccc3n2)cc1
[1]
  GI50: 1960 nM
  TGI: > 100 µM
[3]
  GI50: 1.96 µM
  TGI: > 100 µM
[5]
  GI50: 2200 nM
  TGI: > 100 µM
[6]
  GI50: 3.48 µM
  TGI: 9.11 µM
[9]
  GI50: 2.19 µM
  TGI: 6.91 µM
